Measurements taken from patent publication US20100036122A1, “CLEAVAGE AGENT SELECTIVELY ACTING ON SOLUBLE ASSEMBLY OF AMYLOIDOGENIC PEPTIDE OR PROTEIN” (priority 2006, published 2010).
“Also recorded” adds a separate entry of the source.

Columns and labels:
Format in all cases: biochemical
Aβ40 = Aβ40 (Homo sapiens, UniProt P05067); assay: Cleavage of oligomers of Aβ40 by cleavage agent (MALDI-TOF MS, cleavage yield); settings: for cleavage of Aβ40 (MALDI-TOF mass spectrum): pH 7.50, 36 hours
Protocol: (§1) The activity of each cleavage agent was tested at 37° C. and pH 7.50 (0.050 M phosphoric acid) in Eppendorf tubes unless indicated otherwise in the Examples.
(§2) To generate the monomeric form of Aβ40 or Aβ42 in the early reaction stage, Aβ40 or Aβ42 was treated with NaOH prior to exposure to the pH 7.50 reaction medium (Fezoui, Y.; Hartley, D. M.; Harper, J. D.; Khurana, R.; Walsh, D. M.; Condron, M. M.; Selkoe, D. J.; Lansbury, P. T. Jr.; Fink, A. L.; Teplow, D. B. Amyloid 2000, 7, 166-178). The results for measurement of the fraction of Aβ40 (◯) or Aβ42 ([…]) (initial concentration: 4.0 μM) passing the membrane with cut-off MW of 10000 after incubation at pH 7.50 and 37° C. for various periods of self-assembly are illustrated in FIG. 5. According to the results, most (>80%) of Aβ42 (MW 4514) passes the filter immediately after exposure to the pH 7.50 medium. During the filtration through the membrane which takes about 10 minutes, large oligomers which cannot pass the membrane may have been generated. Therefore, it appears that most of the Aβ42 passed the membrane.
(§3) Unless specifically described in the Examples, cleavage reaction was initiated by adding Aβ40 or Aβ42 to the solution containing the cleavage agent, and the cleavage yield was estimated through the following process.
(§4) A product solution formed by the cleavage reaction was passed through the membrane with a cut-off MW of 10000 to remove aggregates of Aβ40 or Aβ42. Thereafter, the cleavage products were separated by HPLC, and the total amount of the cleavage products was estimated. The cleavage product was degraded to amino acids by alkaline hydrolysis, and then, the total amount of amino acids was estimated with fluorescamine to determine the total amount of the cleavage product. The cleavage yield was calculated by comparing the amount of the cleavage product with the initially added amount of the Aβ40 or Aβ42.
(§5) The cleavage yield measured by incubating Aβ40 or Aβ42 (4.0 μM) with various concentrations of cleavage agent A at pH 7.50 and 37° C. for 36 hours is illustrated in FIG. 8. The cleavage yields of Aβ40 or Aβ42 in the Examples are the mean value measured by using 4˜6 different reaction mixtures. The relative standard deviation (% RSD) of each cleavage yield is 5-15%.

[1] = biological target: T1, amylin (Am; human islet amyloid polypeptide) (Homo sapiens, UniProt P10997); assay: Cleavage of oligomers of amylin by cleavage agent (MALDI-TOF MS, cleavage yield); settings: for cleavage of Am (MALDI-TOF mass spectrum of HPLC-purified products) / cleavage products of Am (MALDI-TOF MS): cleavage agent 0.38-7.1 μM (figure legends), pH 7.50, 36 hours
T1 construct: Am is a cyclic oligopeptide consisting of 37 amino acid residues
T1 sequence (P10997 34-70 limits assumed): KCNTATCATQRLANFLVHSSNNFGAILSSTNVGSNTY
Protocol: as §1
MALDI-TOF mass spectrum of the products purified with HPLC after incubating Am (4.0 μM) with cleavage agent A is illustrated in FIG. 12. In this Example and hereafter, MALDI-TOF mass spectra of cleavage products for Am were taken after purification with HPLC by the method described below.
Unless specifically described in the Examples, cleavage reaction of Am was initiated by adding Am to the solution containing the cleavage agent, and the cleavage yield was estimated through the following process. The product solution obtained from the cleavage reaction was passed through the membrane (cut-off MW=10000) to remove Am aggregates, and then the cleavage product was separated by HPLC. The total amount of the cleavage product was quantified. The cleavage product was converted to amino acids by alkaline hydrolysis, and the total amount of amino acids was estimated by using fluorescamine to determine the amount of the cleavage product. The cleavage yield was calculated by comparing the amount of cleavage product with that of the initial amount of Am.
The cleavage yields measured after reacting Am (4.0 μM) with various concentrations of cleavage agent A at 37° C. and pH 7.50 for 36 hours are illustrated in FIG. 13. The cleavage yields of Am in the Examples are the mean value measured by using 4[…]6 different reaction mixtures. The relative standard deviation of each cleavage yield is 5-15%.

α-synuclein (Syn) = biological target: T2, α-synuclein (Syn) (Homo sapiens, UniProt P37840, M5L); assay: Cleavage of oligomer of α-synuclein by cleavage agent (cleavage yield); settings: Syn 70 μM, pH 7.50, 37° C.; for cleavage yields of Syn: various concentrations of cleavage agent, 3 days
T2 construct: α-synuclein (Syn) is a protein consisting of 140 amino acids; histidine tag (LEHHHHHH) (C); made in house
Protocol: as §1
In the Examples, the slightly modified derivatives of α-synuclein (Syn) were used as a substrate to obtain α-synuclein (Syn) by gene recombination. To facilitate purification by the nickel chelate method, histidine tag (LEHHHHHH) was adhered to C-terminus. To avoid interference in the transcription, leucine instead of methionine was incorporated as the 5th amino acid residue.
Unless the context clearly indicates otherwise, Syn cleavage was initiated by adding Syn to the solution of the cleavage agent. The cleavage yield was calculated according to the following method.
A product solution formed by the cleavage reaction was passed through the membrane with the cut-off MW of 10000 to remove Syn and its assemblies. Then, the cleavage products were separated by HPLC, and the total amount of the cleavage products was estimated. The cleavage product was degraded to amino acids through alkaline hydrolysis. The total amount of the amino acids was then estimated with fluorescamine to quantify the total amount of the cleavage product. The cleavage yield was calculated by comparing the amount of the cleavage product with the initially added amount of Syn.
The cleavage yields measured by incubating Syn (70 μM) with various concentrations of cleavage agent A at pH 7.50 and 37° C. for 3 days are illustrated in FIG. 15. The cleavage yields in the Examples are the mean value measured by using 4˜6 different reaction solutions. Since the MW of Syn used in the Examples is about 15000, some of the protein fragments formed by the cleavage of Syn might have been too large to pass through the membrane with cut-off MW of 10000.

Aβ42 = Aβ42 (Homo sapiens, UniProt P05067); assay: Cleavage of oligomers of Aβ42 by cleavage agent (MALDI-TOF MS, cleavage yield); settings: for cleavage of Aβ42 (MALDI-TOF mass spectrum): cleavage agent 0.50-1.0 μM, pH 7.50, 36 hours
Sequence of Aβ42 (P05067 672-713 limits assumed): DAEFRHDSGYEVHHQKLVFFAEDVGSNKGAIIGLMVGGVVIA
Protocol: as §1, §2, §3, §4, §5

scrambled Aβ42 = assay: Reaction with control peptides: scrambled Aβ42; settings: scrambled Aβ42 4.0 μM, cleavage agent 3.0 μM, pH 7.50, 37° C., 36 hours
Protocol: The following control experiment was performed on cleavage agent A. The peptides or proteins used in the control experiment are not amyloidogenic. […] Two kinds of scrambled Aβ42, having the same 42 amino acids as Aβ42 in a scrambled sequence ([…], […]) (4.0 μM), were not cleaved by incubation with cleavage agent A (3.0 μM) at pH 7.50 and 37° C. for 36 hours.

[2] = test system: horse heart myoglobin, bovine serum γ-globulin, bovine serum albumin, human serum albumin, egg white lysozyme, egg white ovalbumin, bovine pancreas insulin; assay: Reaction with control proteins (not amyloidogenic); settings: each protein 2-7 μM, cleavage agent 5.0 μM, pH 7.50, 37° C., 36 hours
[3] = Aβ42 4.0 μM, pH 7.50, 37° C., 36 hours
[4] = Aβ40 4.0 μM, cleavage agent 3.0 μM, 37° C.
[5] = Aβ40 4.0 μM, cleavage agent 3.0 μM, 36 hours, 37° C., pH 7.50
[6] = concluded from preincubation and filtration experiments
[7] = Aβ42 4.0 μM, cleavage agent 3.0 μM, 36 hours, 37° C., pH 7.50
[8] = Am 4.0 μM, cleavage agent 1.0 μM, 36 hours, 37° C., pH 7.50

Sequence of Aβ40 (P05067 672-711 limits assumed): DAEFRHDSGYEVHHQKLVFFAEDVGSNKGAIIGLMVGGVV

Row | Compound | cleavage of Am (MALDI-TOF mass spectrum of HPLC-purified products) ([1]; Am 4.0 μM, 37° C.) | cleavage products of Am (MALDI-TOF MS) ([1]; Am 4.0 μM, 37° C.) | cleavage of two kinds of scrambled Aβ42 (control) (scrambled Aβ42) | cleavage of non-amyloidogenic control proteins [2] | cleavage of Aβ42 (MALDI-TOF mass spectrum) (Aβ42; Aβ42 4.0 μM, 37° C.) | concentration of cleavage agent at which cleavage reaction was detected (Aβ42; [3]) [nM] | plateau value of the yield for cleavage of Aβ42 at high concentration of the cleavage agent (Aβ42; [3]) | cleavage of Aβ40 (MALDI-TOF mass spectrum) (Aβ40; [4]) | cleavage yields of Syn (α-synuclein (Syn)) | further results
1 | Co^III complex of cyclen [reference compound] |  |  |  |  |  |  |  |  |  | cleavage of Aβ40 by complex lacking the recognition site (Aβ40; complex 20 μM, Aβ40 4.0 μM, pH 7.50, 37° C., 36 hours): No peptide cleavage was observed; cleavage of Am by complex lacking the recognition site ([1]; complex 20 μM, Am 4.0 μM, pH 7.50, 37° C., 36 hours): No peptide cleavage was observed; cleavage of Syn by complex lacking the recognition site (α-synuclein (Syn); complex 20 μM, 36 hours): No peptide cleavage was observed; cleavage of Aβ42 by complex lacking the recognition site (Aβ42; complex 20 μM, Aβ42 4.0 μM, pH 7.50, 37° C., 36 hours): No peptide cleavage was observed
2 | Cc1ccccc1CNc1nc(NCCC(=O)NCCCN2CCNCCNCCNCC2)nc(OCCN(C)c2ccc(-c3nc4ccccc4s3)cc2)n1.O.O.[Co+3] [cleavage agent D] | cleaved | Am20-37 and Am19-37 | the same as those obtained in Example 1 | the same as those obtained in Example 1 | cleaved | 50 to 100 | about 12% |  |  | cleavage of Aβ40 (MALDI-TOF MS data) (Aβ40; Aβ40 4.0 μM, cleavage agent 0.1-10 μM, pH 7.50, 37° C., 36 hours): did not reveal any evidence of cleavage
3 | CCCCNc1nc(NCCCN2CCNCCNCCNCC2)nc(NCc2ccc(-c3nc4ccccc4o3)cc2)n1.O.O.[Co+3] [cleavage agent A] | cleaved | Am20-37 and Am19-37 | not cleaved | cleavage reaction was not detected | cleaved | 100 | about 30% | cleaved | fairly large | cleavage of Aβ40 after preincubation of Aβ40 for 24 hours (Aβ40; [5]): considerable peptide cleavage; effect of preincubation of Aβ40 for periods longer than 24 hours on cleavage yield (Aβ40; [5]): reduces the cleavage yield; yield for cleavage of Aβ40 after preincubation for 3-18 hours (Aβ40; [5]): does not decrease considerably; assembly species of Aβ40 cleaved (selectivity) (Aβ40; [6]): protofibrils or fibrils of Aβ40 are not cleaved; cleavage of Aβ42 after preincubation of Aβ42 for 24 hours (Aβ42; [7]): little cleavage was observed; cleavage yield after preincubation of Aβ42 for 3-6 hours compared with no preincubation (Aβ42; [7]): not much smaller; assembly species of Aβ42 cleaved (selectivity) (Aβ42; [6]): the oligomer is cleaved by the cleavage agent A and not the Aβ42 monomer, protofibril, or fibril
4 | CC(Nc1nc(NCc2ccc(Cl)cc2)nc(OCCN(C)c2ccc(-c3nc4ccccc4s3)cc2)n1)C(=O)NCCCN1CCNCCNCCNCC1.O.O.[Co+3] (centres unmarked) [cleavage agent B] | cleaved | Am20-37, Am19-37 and Am17-37 | the same as those obtained in Example 1 | the same as those obtained in Example 1 | cleaved | 30 to 50 | ~17% | cleaved | fairly large | plateau value of the yield for cleavage of Aβ40 at high concentration of the cleavage agent (Aβ40; Aβ40 4.0 μM, pH 7.50, 37° C., 36 hours): about 12%; cleavage yield against reaction time ([1]; Am 4.0 μM, cleavage agent 1.0 μM, 37° C., pH 7.50): does not increase even if the reaction period is increase beyond 36 hours; amounts of cleavage products after preincubation of Am for 6 hours compared with no preincubation [1, 8]: not much smaller; cleavage of Am after preincubation of Am for 36 hours or longer [1, 8]: little cleavage reaction occurred; assembly species of Am cleaved (selectivity) [1, 6]: oligomers of Am instead of the monomer, protofibrils, and fibrils of Am are cleaved
5 | CCCCNc1nc(NCCCN2CCNCCNCCNCC2)nc(OCCN(C)c2ccc(-c3nc4ccccc4s3)cc2)n1.O.O.[Co+3] [cleavage agent E] | cleaved | Am17-37, Am16-37 and Am13-37 | the same as those obtained in Example 1 | the same as those obtained in Example 1 |  |  |  |  |  | 
6 | CC(C)CC(Nc1nc(OCCN(C)c2ccc(-c3nc4ccccc4s3)cc2)nc(N2CCCCC2)n1)C(=O)NCCCN1CCNCCNCCNCC1.O.O.[Co+3] (centres unmarked) [cleavage agent F] | cleaved | Am19-37 and Am17-37; also recorded: Am20-37, Am17-37 and Am14-37 | the same as those obtained in Example 1 | the same as those obtained in Example 1 |  |  |  |  |  | 
